The values that follow come from ChEMBL document CHEMBL1153078, “Design and synthesis of acetamido tri- and tetra-hydroxyazepanes: potent and selective beta-N-acetylhexosaminidase inhibitors” (Bioorg Med Chem, 2009).

pKi: −log10 of the molar value. Calls of active or inactive are those of the source. No cut-off for these calls is given here.

The species named for assay [1] is Bos taurus. As to the kind of experiment: Inhibition of bovine liver beta-N-acetylglucosaminidase at 1 mM.
Assay [2] has as its system Canavalia ensiformis. As to the kind of experiment: Inhibition of jack bean beta-N-acetylglucosaminidase at 1 mM.
Assay [3] relates to Canavalia ensiformis. As to the kind of experiment: Inhibition of jack bean alpha-mannosidase at 1 mM.
Assay [4] has as its target T1, Tissue alpha-L-fucosidase (Bos taurus) (UniProt Q2KIM0).
T1 sequence (whole entry): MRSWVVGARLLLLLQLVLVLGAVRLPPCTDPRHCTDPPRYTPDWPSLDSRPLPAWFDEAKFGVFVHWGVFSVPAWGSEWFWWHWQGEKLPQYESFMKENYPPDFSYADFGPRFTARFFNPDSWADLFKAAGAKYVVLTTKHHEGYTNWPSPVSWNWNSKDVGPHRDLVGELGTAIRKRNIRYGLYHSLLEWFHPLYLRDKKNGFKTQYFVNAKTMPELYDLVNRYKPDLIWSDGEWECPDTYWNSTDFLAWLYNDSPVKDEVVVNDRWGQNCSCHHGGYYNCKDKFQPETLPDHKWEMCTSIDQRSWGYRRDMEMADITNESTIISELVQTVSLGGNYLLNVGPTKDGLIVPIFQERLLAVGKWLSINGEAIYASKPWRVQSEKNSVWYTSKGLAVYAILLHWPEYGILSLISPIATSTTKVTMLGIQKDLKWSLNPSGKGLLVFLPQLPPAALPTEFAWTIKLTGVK
Nature of the assay: Inhibition of bovine epididymis alpha-L-fucosidase at 1 mM.

The target of assay [5] is Alpha-galactosidase (Coffea arabica) (UniProt Q42656). As to the kind of experiment: Inhibition of coffee bean alpha-galactosidase at 1 mM.
Alpha-galactosidase (Coffea arabica), sequence (Q42656 16-378 limits assumed): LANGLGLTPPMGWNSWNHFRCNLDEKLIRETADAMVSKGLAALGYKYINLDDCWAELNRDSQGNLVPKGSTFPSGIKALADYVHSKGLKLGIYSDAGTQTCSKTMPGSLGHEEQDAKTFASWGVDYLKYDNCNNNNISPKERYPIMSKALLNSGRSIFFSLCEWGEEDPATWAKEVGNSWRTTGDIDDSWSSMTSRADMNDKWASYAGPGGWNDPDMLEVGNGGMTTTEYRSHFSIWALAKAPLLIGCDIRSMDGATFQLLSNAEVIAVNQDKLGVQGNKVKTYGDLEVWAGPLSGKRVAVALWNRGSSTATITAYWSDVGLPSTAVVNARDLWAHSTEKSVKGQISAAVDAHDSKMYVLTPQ
The test system of a further assay is Saccharomyces cerevisiae. Nature of the assay: Inhibition of yeast alpha-glucosidase at 1 mM.
The test system of another assay is Prunus dulcis. As to the kind of experiment: Inhibition of almond beta-glucosidase at 1 mM.
Another assay relates to Helix pomatia. As to the kind of experiment: Inhibition of snail beta-mannosidase at 1 mM.
For assay [6], the target named is T2, Beta-galactosidase (Aspergillus oryzae) (UniProt Q2U7N3).
T2 sequence (whole entry): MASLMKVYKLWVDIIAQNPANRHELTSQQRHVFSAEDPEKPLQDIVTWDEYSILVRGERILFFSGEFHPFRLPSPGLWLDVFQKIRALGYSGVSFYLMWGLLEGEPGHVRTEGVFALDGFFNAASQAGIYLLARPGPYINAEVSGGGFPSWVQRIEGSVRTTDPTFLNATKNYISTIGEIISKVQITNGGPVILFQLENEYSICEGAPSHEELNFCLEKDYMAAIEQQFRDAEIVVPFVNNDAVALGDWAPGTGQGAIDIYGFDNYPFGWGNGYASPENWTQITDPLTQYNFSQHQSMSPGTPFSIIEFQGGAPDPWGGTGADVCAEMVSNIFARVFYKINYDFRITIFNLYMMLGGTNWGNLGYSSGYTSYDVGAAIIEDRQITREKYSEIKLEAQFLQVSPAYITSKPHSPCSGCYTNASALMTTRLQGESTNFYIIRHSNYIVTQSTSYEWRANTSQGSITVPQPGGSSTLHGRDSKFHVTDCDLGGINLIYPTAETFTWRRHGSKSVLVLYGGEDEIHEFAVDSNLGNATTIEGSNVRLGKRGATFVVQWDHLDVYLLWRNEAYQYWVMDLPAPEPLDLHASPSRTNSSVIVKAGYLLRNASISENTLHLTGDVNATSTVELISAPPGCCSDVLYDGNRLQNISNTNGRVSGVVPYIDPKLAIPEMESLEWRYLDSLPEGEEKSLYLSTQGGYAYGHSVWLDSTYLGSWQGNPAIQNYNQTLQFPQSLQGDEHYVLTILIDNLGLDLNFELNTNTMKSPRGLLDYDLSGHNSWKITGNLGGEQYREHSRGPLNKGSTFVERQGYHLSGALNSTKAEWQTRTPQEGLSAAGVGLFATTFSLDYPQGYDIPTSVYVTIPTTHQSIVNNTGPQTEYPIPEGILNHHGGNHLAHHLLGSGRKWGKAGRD
Nature of the assay: Inhibition of Aspergillus oryzea beta-galactosidase at 1 mM.

For the next assay, the system named is Aspergillus niger. As to the kind of experiment: Inhibition of Aspergillus niger amyloglucosidase at 1 mM.
A further assay relates to Oryza sativa. As to the kind of experiment: Inhibition of rice alpha-glucosidase at 1 mM.
The target of assay [7] is Beta-galactosidase (Escherichia coli) (UniProt Q8VNN2). Nature of the assay: Inhibition of Escherichia coli beta-galactosidase at 1 mM.
Beta-galactosidase (Escherichia coli), sequence (Q8VNN2 whole entry, looked up): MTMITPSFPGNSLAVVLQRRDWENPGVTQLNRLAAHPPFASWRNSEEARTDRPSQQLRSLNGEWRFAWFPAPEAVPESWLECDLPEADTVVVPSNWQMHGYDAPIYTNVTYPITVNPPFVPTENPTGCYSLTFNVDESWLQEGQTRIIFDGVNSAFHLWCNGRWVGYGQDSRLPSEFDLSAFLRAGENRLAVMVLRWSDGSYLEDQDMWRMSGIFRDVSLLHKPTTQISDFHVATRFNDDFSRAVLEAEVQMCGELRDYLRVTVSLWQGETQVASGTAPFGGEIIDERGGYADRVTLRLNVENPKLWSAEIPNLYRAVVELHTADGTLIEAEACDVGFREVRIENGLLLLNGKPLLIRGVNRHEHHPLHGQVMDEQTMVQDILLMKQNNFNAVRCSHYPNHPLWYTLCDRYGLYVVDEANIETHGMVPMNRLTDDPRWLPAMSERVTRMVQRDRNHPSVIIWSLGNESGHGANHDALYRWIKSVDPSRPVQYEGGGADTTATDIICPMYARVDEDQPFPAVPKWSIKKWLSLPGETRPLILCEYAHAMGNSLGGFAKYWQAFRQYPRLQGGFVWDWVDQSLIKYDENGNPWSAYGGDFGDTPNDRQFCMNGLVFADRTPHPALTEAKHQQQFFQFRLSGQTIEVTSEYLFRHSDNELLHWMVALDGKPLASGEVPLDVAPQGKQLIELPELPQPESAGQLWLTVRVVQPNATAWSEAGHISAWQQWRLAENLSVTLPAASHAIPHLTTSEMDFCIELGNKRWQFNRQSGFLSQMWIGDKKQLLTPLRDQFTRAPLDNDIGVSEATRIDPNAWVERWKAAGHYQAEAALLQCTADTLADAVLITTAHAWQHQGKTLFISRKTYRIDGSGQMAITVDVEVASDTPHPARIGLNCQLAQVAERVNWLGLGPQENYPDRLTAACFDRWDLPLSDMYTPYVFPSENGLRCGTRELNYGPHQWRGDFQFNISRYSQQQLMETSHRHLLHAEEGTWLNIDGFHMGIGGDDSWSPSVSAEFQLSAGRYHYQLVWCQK
A further assay concerns Aspergillus oryzae. Nature of the assay: Inhibition of Aspergillus oryzea beta-xylosidase at 1 mM.
Assay [8] can be described thus: Inhibition of bovine liver beta-N-acetylglucosaminidase. On the set-up: species or system Bos taurus.
Assay [9] can be described thus: Inhibition of jack bean beta-N-acetylglucosaminidase. Also on record: species or system Canavalia ensiformis.
For assay [10], the species on record is Bos taurus. Nature of the assay: Inhibition of bovine liver beta-N-acetylglucosaminidase at 240 uM.
Assay [11] deals with Canavalia ensiformis. Nature of the assay: Inhibition of jack bean beta-N-acetylglucosaminidase at 240 uM.

Consider `CC(=O)N[C@@H]1CNC[C@H](O)[C@@H](O)[C@@H]1O`, for which the inhibition (as a rule, the drop in the measured response relative to a control, in per cent) was 68% in the assay listed under Bos taurus [1] and 93% in the assay on Canavalia ensiformis [2]. For the same compound, the inhibition result (with Canavalia ensiformis [3]; in assay [4]; in assay [5]; in the assay on Saccharomyces cerevisiae; with Prunus dulcis; with Helix pomatia) was “inactive” each time. The inhibition result (in assay [6]; with Aspergillus niger; in the assay on Oryza sativa; in assay [7]; in the assay with Aspergillus oryzae) was “inactive” throughout.
As to `CC(=O)N[C@@H]1[C@@H](O)[C@H](O)[C@@H](CO)NC[C@H]1O`, the inhibition in the assay listed under Bos taurus [1] was 99%; in the assay with Canavalia ensiformis [2], 98%; with Canavalia ensiformis [3] it was 25%. Besides, the pKi (commonly −log10 of the Ki, conventionally taken in molar units) in assay [8] is 6.22; in assay [9], 6.30. For the same compound, the inhibition entry (in assay [4]; in assay [5]; with Saccharomyces cerevisiae; with Prunus dulcis; in the assay on Helix pomatia; in [6]) was “inactive” in each case. Besides, the inhibition result (with Aspergillus niger; in the assay on Oryza sativa; in assay [7]; in the assay with Aspergillus oryzae) was “inactive” each time.
Turning to `CC(=O)N[C@H]1CN[C@H](CO)[C@@H](O)[C@H](O)[C@@H]1O`, the figures for the inhibition in the assay listed under Bos taurus [1] and in the assay on Canavalia ensiformis [2] were 74% and 88%, respectively. In addition, the inhibition result (in the assay on Canavalia ensiformis [3]; in [4]; in assay [5]; in the assay on Saccharomyces cerevisiae; with Prunus dulcis; with Helix pomatia) was “inactive” in each case. In addition, the inhibition entry (in [6]; in the assay with Aspergillus niger; in the assay on Oryza sativa; in assay [7]; with Aspergillus oryzae) was “inactive” each time. The same compound gave a pKi in assay [9] of 4.52.
Turning to `CC(=O)N[C@H]1CNC[C@H](O)[C@@H](O)[C@@H]1O`, the inhibition in the assay listed under Bos taurus [1] came out at 99%; in the assay with Canavalia ensiformis [2], 99%; in the assay listed under Bos taurus [10], 22%; in [4], 28%; with Canavalia ensiformis [11] it was 22%; in the assay with Aspergillus niger it was 19%. Besides, the pKi in assay [8] was 6.15; in [9] it was 6.40. The inhibition result (in the assay on Canavalia ensiformis [3]; in assay [5]; in the assay with Saccharomyces cerevisiae; in the assay with Prunus dulcis; with Helix pomatia; in [6]) was “inactive” throughout. The inhibition result (in the assay with Oryza sativa; in assay [7]; with Aspergillus oryzae) was “inactive” throughout.
